Activity calls are given as the source filed them. No cut-off for these calls is given here.

The nature of series [1]: Solubility of compound in methanol at 3.3 mg/ml. The class given is physicochemical.
Series [2] can be described thus: Solubility of compound in water at 1 mg/ml. The series is classed as physicochemical. The following applies: buffer.
A short description of series [3]: Solubility of compound in saline at 0.4 mg/ml. The following applies: buffer. The class given is physicochemical.
Series [4] is described as follows: Solubility of compound in saline at 1 mg/ml. The settings on record: buffer. The series is classed as physicochemical.
The nature of series [5]: Solubility of compound in methanol at 1 mg/ml. The series is classed as physicochemical.
Series [6] can be described thus: Solubility of compound in water at 0.8 mg/ml. The class given is physicochemical. The settings on record: buffer.
A short description of series [7]: Solubility of compound in water at 8 mg/ml. The class given is physicochemical. The following applies: buffer.
In series [8] the test system is COLO 205. The series is described as follows: Antitumor activity against Homo sapiens (human) COLO205 xenografted in SCID mouse assessed as tumor growth at 1 to 5 mg/kg, iv twice daily for 3 days for 2 administered as solution in 2.5% cremophor. The series is classed as functional, organism-based.
Series [9] relates to COLO 205. As to the kind of experiment: Antitumor activity against Homo sapiens (human) COLO205 xenografted in SCID mouse assessed as tumor growth at 10 to 20 mg/kg, iv qd for 5 days for 2 administered as solution in 1% carboxymethy-cellulose. The series is classed as functional, organism-based. Background: A xenograft is tissue or cells of one species grown in another, often human tumour cells in immunodeficient mice.

In series [10] the test system is COLO 205. The series is described as follows: Antitumor activity against Homo sapiens (human) COLO205 xenografted in SCID mouse assessed as inhibition of tumor growth at 7.5 to 10 mg/kg, iv twice daily for 3 days for 2 administered as solution in 2.5% cremophor. The class given is functional, organism-based.
Series [11] deals with COLO 205. As to the kind of experiment: Antitumor activity against Homo sapiens (human) COLO205 xenografted in SCID mouse assessed as inhibition of tumor growth at 2.5 to 10 mg/kg, iv twice daily for 3 days for 2 administered as solution in water. The class given is functional, organism-based.
Series [12] concerns COLO 205. The series is described as follows: Antitumor activity against Homo sapiens (human) COLO205 xenografted in SCID mouse assessed as tumor growth at 5 to 20 mg/kg, ip 4 times daily for 3 days administered as solution in 1% carboxymethy-cellulose. The series is classed as functional, organism-based.

With `COc1ccc2nc3cc(Cl)ccc3c(NCCCNCCCNc3c4ccc(Cl)cc4nc4ccc(OC)cc34)c2c1.O=C(O)C(F)(F)F.O=C(O)C(F)(F)F.O=C(O)C(F)(F)F`, the values for the solubility entry in series [1], in [2] and in [3] were “soluble”, “Insoluble” and “soluble”, respectively.
With `COc1ccc2nc3cc(Cl)ccc3c(NCCCNCCCNc3c4ccc(Cl)cc4nc4ccc(OC)cc34)c2c1.CS(=O)(=O)O`, the solubility result is given as “Insoluble” in series [4], “soluble” in [5] and “Insoluble” in series [6].
As for `COc1ccc2nc3cc(Cl)ccc3c(NCCCNCCCNc3c4ccc(Cl)cc4nc4ccc(OC)cc34)c2c1` [listing 1 of 2 here], the solubility entry in series [4] was “Insoluble”; in [5], “soluble”; in series [2], “Insoluble”.
In the case of `CC(=O)O.CC(=O)O.CC(=O)O.COc1ccc2nc3cc(Cl)ccc3c(NCCCNCCCNc3c4ccc(Cl)cc4nc4ccc(OC)cc34)c2c1`, the solubility result in series [7] was “soluble”; in series [4], “Insoluble”; in [5], “soluble”.
On to `COc1ccc2nc3cc(Cl)ccc3c(NCCCNCCCNc3c4ccc(Cl)cc4nc4ccc(OC)cc34)c2c1` [listing 2 of 2 here], for which the result in the series with COLO 205 [8], in the series with COLO 205 [9] and in the series with COLO 205 [12] was inactive. For the same compound, the TGI entry in the series with COLO 205 [10] and in the series with COLO 205 [11] was “Active” throughout.

The values above are taken from ChEMBL document CHEMBL3045583, “Increasing antitumor activity in vivo by enhancing acridine dimer solubility with salt preparations” (Med Chem Res, 2010).
